What all share (assay): HTS ATP-utilizing enzyme assay, off-chip mobility-shift (Caliper HTS 250)
Holding throughout (conditions): test compound 10 μM, kinase listed = active (greater than six-sigma from the mean activity of inactive compounds)

One experiment deals with MAPKAPK2 (Homo sapiens, UniProt P49137). It counts as biochemical. In short, it runs like this:
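Single-point screen of test compound at 10 μM against MAPKAPK2 with peptide substrate in HEPES pH 7.5 buffer (Triton X-100, BSA), 2.5 h at 20-22 °C. Substrate-to-phosphopeptide ratio was read by off-chip microfluidic mobility shift; EDTA and DMSO wells defined 100% and 0% controls, hits by six-sigma limits.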

A further experiment addresses T1, NEK2 (Homo sapiens, UniProt P51955).
T1 sequence (P51955 1-445): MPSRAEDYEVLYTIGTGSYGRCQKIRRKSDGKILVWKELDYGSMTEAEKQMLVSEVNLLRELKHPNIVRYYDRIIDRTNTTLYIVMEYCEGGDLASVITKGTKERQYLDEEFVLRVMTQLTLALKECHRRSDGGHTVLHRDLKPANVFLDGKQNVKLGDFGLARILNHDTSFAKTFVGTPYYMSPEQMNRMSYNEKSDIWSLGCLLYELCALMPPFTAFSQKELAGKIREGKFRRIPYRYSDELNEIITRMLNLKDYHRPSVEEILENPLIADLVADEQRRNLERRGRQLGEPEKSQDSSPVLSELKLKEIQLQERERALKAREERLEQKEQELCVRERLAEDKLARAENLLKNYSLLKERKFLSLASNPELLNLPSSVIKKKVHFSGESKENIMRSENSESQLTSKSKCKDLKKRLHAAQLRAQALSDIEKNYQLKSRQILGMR
It counts as biochemical. A digest of the protocol: (§1)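 The ratio of peptide substrate to phosphorylated product, measured by microfluidic mobility shift, gave percent inhibition. Reactions contained enzyme, peptide substrate and compound at 10 μM in HEPES pH 7.5 buffer, ran 2.5 hrs at 20° C. to 22° C., and were quenched with EDTA.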

The next experiment addresses T2, PRAK (Homo sapiens, UniProt Q8IW41).
T2 sequence (Q8IW41 1-473): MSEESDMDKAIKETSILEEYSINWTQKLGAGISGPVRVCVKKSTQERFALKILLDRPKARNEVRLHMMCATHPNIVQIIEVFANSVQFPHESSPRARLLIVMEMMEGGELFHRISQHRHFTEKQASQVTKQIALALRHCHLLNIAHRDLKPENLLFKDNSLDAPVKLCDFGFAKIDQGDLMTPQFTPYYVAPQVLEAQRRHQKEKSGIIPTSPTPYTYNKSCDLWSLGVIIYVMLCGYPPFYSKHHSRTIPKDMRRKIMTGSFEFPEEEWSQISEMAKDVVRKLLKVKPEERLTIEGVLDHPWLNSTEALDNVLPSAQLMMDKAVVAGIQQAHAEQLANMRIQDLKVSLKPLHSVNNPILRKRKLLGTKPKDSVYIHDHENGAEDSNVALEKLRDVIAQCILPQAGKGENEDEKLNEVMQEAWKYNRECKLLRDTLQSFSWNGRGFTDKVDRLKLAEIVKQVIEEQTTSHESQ
It counts as biochemical. In short, it runs like this: as §1

For another experiment, the system named is CK2. It counts as biochemical, human. The source says: The following procedures describe the reagent and plate preparation for a HTS of an ATP-utilizing enzyme, such as a protein kinase, run in an off-chip mobility-shift assay format. The following provides an HTS protocol for running a protein kinase HTS screen on a Caliper HTS 250 microfluidics system. The following parameters are dependent on the protein kinase used and can be determined by one skilled in the art as part of a typical assay development process. For example, the peptide substrate used can be identified from the current literature, by screening a peptide library of potential protein kinase substrates, or by other applicable means accepted in the field.
The following table provides typical screen assay parameters appropriate for a Caliper HTS 250 microfluidics system.
The reagents and buffers listed in the following table are generally applicable for developing and running an HTS screen on a human protein kinase using the Caliper HTS 250 system.
The following reagents were prepared using the previously described buffers.
A 2× Master Buffer solution was prepared by combining 200 mL of 1 M HEPES, pH 7.5, 2 mL of 10% Triton X-100, 20 mL of 10% BSA, and 778 mL of H2O.
A 2.5× Substrate Buffer solution was prepared by combining 177.408 mL of 2× Master Buffer, 0.887 mL of 1 mM peptide-X, and 176.521 mL of H2O.
A 1.55× Termination Buffer solution was prepared by combining 762.05 mL of 2× Master Buffer, 95.1 mL of 0.5 M EDTA, and 666.94 mL of H2O. […]
Assays to determine the kinase inhibitory activity of compounds of the present disclosure were performed using a Caliper HTS 250 microfluidics device, Greiner U-bottom assay plates, a Multidrop for transfer of reagents, and Biomek FX (AMNCBM03) software. […] The inhibition of the ATP-utilizing enzyme, such as a particular protein kinase, was determined by measuring the ratio of the peptide substrate to phosphorylated product for each well of the assay plate using the Caliper HTS 250 system. […]

In the next experiment the target is C-TAK1 (Homo sapiens, UniProt P27448). It counts as biochemical. In short, it runs like this:
as §1

The target of the next experiment is CDK2/cyclin A (Homo sapiens, UniProt P24941). It counts as biochemical. In short, it runs like this:
as §1

In another experiment the target is CHEK2 (Homo sapiens, UniProt O96017). It counts as biochemical. A digest of the protocol:
as §1

A further experiment concerns the target T3, DYRK2 (Homo sapiens, UniProt Q92630).
T3 sequence (Q92630 1-601): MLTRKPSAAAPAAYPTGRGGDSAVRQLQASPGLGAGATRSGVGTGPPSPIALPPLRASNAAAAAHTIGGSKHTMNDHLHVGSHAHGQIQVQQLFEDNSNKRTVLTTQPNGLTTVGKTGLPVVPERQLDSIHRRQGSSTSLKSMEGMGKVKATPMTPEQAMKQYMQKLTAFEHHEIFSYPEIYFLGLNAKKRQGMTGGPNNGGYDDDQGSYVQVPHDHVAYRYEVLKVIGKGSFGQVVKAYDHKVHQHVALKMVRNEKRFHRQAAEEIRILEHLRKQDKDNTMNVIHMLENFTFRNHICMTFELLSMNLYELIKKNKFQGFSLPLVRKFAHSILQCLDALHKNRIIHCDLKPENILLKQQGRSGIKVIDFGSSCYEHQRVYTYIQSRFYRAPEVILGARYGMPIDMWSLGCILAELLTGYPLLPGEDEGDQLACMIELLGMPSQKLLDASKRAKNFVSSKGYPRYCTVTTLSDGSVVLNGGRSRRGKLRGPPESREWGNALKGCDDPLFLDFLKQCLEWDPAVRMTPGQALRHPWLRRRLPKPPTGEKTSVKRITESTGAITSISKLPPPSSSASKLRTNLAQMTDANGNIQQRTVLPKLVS
It counts as biochemical. In short, it runs like this: as §1

The target of a further experiment is ROCK2 (Homo sapiens, UniProt O75116). It counts as biochemical. In short, it runs like this:
as §1

The next experiment addresses CDK1/cyclin B (Homo sapiens, UniProt P06493). It counts as biochemical. A digest of the protocol:
as §1

The next experiment addresses KIT (Homo sapiens, UniProt P10721). It counts as biochemical. In short, it runs like this:
as §1

A further experiment addresses SRC (Homo sapiens, UniProt P12931). It counts as biochemical. In short, it runs like this: as §1
Another experiment has as its target SYK (Homo sapiens, UniProt P43405). It counts as biochemical. In short, it runs like this: as §1
The next experiment addresses GSK3-α (Homo sapiens, UniProt P49840). It counts as biochemical. In short, it runs like this:
as §1

A further experiment concerns the target GSK-3-β (Homo sapiens, UniProt P49841). It counts as biochemical. In short, it runs like this:
as §1

CHEK2, sequence (O96017 whole entry): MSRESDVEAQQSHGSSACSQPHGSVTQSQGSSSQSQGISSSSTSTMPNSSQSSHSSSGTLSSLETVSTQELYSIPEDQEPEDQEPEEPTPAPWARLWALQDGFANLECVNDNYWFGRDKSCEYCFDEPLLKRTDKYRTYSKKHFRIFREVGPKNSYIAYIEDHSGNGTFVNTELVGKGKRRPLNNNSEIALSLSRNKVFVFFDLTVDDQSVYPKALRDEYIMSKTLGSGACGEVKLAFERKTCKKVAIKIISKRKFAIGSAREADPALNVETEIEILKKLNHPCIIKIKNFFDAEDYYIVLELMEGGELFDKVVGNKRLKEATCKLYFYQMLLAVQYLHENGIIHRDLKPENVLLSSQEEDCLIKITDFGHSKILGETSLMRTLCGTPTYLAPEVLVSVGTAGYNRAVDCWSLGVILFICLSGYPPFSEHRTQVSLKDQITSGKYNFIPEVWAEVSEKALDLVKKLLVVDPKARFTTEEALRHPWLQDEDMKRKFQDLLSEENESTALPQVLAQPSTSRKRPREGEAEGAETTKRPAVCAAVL
C-TAK1, sequence (P27448 whole entry): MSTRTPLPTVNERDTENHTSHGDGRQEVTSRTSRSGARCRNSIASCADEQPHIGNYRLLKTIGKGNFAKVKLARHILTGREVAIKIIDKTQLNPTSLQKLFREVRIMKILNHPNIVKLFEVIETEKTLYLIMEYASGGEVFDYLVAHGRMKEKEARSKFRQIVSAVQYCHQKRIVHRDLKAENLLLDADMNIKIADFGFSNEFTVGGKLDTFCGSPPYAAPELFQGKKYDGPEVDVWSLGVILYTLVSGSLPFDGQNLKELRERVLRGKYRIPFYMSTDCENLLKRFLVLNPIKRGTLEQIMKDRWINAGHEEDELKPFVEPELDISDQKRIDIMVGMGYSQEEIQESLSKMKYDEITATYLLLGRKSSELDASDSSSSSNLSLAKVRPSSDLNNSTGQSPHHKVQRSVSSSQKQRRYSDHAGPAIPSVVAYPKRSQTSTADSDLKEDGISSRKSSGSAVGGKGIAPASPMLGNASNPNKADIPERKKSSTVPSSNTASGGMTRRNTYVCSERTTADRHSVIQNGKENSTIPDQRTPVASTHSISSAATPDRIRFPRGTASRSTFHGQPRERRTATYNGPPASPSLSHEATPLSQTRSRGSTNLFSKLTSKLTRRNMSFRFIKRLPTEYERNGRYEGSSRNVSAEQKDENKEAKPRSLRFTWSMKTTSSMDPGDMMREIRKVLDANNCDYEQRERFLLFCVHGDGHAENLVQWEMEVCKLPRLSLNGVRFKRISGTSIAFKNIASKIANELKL
MAPKAPK2, sequence (P49137 whole entry): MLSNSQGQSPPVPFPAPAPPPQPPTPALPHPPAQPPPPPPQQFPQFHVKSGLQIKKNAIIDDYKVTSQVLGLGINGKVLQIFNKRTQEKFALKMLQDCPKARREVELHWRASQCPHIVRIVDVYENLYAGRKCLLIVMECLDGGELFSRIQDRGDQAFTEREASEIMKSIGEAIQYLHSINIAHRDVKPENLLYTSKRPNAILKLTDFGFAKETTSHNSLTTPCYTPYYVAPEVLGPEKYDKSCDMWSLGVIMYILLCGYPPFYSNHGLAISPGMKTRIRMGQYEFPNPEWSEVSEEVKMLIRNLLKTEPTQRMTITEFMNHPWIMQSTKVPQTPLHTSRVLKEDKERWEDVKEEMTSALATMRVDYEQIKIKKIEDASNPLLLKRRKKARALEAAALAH
GSK3-α, sequence (P49840 whole entry): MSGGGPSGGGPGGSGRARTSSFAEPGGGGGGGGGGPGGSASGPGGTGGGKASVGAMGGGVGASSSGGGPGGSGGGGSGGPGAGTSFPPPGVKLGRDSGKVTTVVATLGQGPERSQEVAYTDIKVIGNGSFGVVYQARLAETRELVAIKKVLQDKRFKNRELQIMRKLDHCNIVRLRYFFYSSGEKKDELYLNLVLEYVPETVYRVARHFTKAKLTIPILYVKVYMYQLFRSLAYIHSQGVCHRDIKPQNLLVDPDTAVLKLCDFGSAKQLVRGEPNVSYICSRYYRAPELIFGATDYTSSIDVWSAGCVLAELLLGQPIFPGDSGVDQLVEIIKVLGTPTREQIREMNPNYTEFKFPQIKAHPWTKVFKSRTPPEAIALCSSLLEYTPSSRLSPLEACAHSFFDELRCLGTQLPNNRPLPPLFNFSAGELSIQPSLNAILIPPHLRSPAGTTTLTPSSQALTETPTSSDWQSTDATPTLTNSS
CDK1/cyclin B, sequence (P06493 whole entry): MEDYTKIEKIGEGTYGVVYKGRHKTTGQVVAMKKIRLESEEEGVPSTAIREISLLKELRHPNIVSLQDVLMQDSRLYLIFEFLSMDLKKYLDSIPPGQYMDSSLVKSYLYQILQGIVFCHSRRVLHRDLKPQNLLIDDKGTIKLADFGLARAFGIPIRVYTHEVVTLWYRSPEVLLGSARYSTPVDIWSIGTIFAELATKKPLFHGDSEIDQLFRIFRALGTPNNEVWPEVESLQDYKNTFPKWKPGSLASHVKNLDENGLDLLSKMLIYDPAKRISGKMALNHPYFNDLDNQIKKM
CDK1/cyclin B, sequence (P14635 whole entry partner): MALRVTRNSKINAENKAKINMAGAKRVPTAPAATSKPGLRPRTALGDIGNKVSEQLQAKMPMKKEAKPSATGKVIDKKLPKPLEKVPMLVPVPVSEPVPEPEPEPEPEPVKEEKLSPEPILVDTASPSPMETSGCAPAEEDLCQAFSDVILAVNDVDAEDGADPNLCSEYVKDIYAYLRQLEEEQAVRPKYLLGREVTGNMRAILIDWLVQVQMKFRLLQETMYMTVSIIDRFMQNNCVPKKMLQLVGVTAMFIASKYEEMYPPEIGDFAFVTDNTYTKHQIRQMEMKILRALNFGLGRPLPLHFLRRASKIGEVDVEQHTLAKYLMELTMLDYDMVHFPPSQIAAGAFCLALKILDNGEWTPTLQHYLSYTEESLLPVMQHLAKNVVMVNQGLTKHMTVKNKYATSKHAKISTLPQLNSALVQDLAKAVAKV
ROCK2, sequence (O75116 whole entry): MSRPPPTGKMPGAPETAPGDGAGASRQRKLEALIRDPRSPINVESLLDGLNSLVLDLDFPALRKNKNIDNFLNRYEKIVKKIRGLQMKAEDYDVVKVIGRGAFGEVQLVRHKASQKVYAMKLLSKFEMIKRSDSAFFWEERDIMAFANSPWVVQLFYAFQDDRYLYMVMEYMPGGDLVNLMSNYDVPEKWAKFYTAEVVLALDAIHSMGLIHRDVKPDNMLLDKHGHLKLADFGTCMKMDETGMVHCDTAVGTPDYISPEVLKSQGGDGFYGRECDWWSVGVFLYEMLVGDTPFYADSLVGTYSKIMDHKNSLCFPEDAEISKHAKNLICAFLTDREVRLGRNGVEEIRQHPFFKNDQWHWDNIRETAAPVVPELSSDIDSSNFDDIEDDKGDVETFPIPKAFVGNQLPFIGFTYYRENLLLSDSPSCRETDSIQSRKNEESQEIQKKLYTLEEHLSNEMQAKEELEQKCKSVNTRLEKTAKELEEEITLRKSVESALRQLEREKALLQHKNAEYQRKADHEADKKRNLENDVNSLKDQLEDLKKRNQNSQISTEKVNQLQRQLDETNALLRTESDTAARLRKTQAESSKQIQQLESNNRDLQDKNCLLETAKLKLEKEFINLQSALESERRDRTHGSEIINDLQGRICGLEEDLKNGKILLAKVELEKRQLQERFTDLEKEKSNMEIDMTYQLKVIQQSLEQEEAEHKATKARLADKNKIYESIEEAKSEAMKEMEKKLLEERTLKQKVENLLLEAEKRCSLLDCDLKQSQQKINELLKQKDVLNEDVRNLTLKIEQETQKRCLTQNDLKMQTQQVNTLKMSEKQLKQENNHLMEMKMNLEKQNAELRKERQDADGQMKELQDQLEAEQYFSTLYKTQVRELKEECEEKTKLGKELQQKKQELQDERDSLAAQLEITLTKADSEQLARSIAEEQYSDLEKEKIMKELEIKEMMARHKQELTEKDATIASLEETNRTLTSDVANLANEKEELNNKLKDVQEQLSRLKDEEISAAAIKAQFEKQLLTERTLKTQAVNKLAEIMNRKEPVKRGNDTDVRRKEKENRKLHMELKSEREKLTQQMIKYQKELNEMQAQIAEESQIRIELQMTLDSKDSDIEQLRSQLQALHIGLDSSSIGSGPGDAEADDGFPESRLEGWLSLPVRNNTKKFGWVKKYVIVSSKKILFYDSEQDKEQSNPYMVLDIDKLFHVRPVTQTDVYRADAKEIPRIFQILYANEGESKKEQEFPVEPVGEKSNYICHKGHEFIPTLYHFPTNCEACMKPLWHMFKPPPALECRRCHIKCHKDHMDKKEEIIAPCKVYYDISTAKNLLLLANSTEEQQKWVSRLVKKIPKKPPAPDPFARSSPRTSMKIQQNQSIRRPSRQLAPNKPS
SRC, sequence (P12931 whole entry): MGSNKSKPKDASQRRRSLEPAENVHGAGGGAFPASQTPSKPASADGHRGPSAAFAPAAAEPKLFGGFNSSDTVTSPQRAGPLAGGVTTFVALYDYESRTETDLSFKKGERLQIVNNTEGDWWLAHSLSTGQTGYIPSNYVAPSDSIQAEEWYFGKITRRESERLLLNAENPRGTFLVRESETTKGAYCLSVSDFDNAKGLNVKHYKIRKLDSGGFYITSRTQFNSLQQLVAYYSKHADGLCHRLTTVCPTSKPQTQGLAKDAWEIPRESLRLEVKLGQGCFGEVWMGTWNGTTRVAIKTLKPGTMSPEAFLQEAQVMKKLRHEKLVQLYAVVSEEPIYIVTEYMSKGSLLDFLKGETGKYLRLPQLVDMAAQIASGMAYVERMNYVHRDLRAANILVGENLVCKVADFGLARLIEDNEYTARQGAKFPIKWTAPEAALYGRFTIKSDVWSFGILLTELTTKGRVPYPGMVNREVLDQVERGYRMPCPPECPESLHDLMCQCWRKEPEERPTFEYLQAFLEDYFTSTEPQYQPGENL

Consider `CN1CCN(c2ccc(Nc3ccnc4ccc(-c5ccccc5C(F)(F)F)cc34)cc2)CC1` [N-(4-(4-methylpiperazin-1-yl)phenyl)-6-(2-(trifluoromethyl)phenyl)quinolin-4-amine], for which the Activity result on MAPKAPK2 is recorded as “MAPKAPK2”; on NEK2, “NEK2”; at PRAK it was “PRAK”; with CK2 it was “CK2”.

Turning to `CN1CCN(c2ccc(Nc3ccnc4ccc(-c5ccc(Cl)c(Cl)c5)cc34)cc2)CC1` [6-(3,4-dichlorophenyl)-N-(4-(4-methylpiperazin-1-yl)phenyl)quinolin-4-amine], the Activity entry at MAPKAPK2 is listed as “MAPKAPK2”; on C-TAK1, “C-TAK1”; at CDK2/cyclin A, “CDK2/cyclin A”; at CHEK2, “CHEK2”; on NEK2, “NEK2”; on PRAK, “PRAK”.

Take `CN1CCN(c2ccc(Nc3ccnc4ccc(-c5ccc(C(N)=O)cc5)cc34)cc2)CC1` [4-(4-(4-(4-methylpiperazin-1-yl)phenylamino)quinolin-6-yl)benzamide]: the Activity result at MAPKAPK2 is given as “MAPKAPK2”; on DYRK2, “DYRK2”; at NEK2, “NEK2”; on PRAK, “PRAK”; at ROCK2, “ROCK2”.

In the case of `CNC1CCN(c2ccc(Nc3ccnc4ccc(-c5ccc(C#N)cc5)cc34)cc2)C1` (stereo not drawn) [4-(4-(4-(3-(methylamino)pyrrolidin-1-yl)phenylamino)quinolin-6-yl)benzonitrile], the Activity entry at CDK1/cyclin B is given as “CDK1/cyclin B”; at KIT it was “KIT”; at PRAK it was “PRAK”.

`CN1CCN(c2ccc(Nc3ccnc4ccc(-c5cccc(C(=O)O)c5)cc34)cc2)CC1` [3-(4-(4-(4-methylpiperazin-1-yl)phenylamino)quinolin-6-yl)benzoic acid]: the Activity entry is given as “MAPKAPK2” on MAPKAPK2, “PRAK” on PRAK and “CK2” in the experiment on CK2.

As to `CN1CCN(c2ccc(Nc3ccnc4ccc(-c5cccc(OCc6ccccc6)c5)cc34)cc2)CC1` [6-(3-(benzyloxy)phenyl)-N-(4-(4-methylpiperazin-1-yl)phenyl)quinolin-4-amine], the Activity result at MAPKAPK2 is given as “MAPKAPK2”; on C-TAK1, “C-TAK1”; at CDK2/cyclin A, “CDK2/cyclin A”; on CHEK2 it was “CHEK2”; on PRAK it was “PRAK”.

Regarding `CN1CCN(c2ccc(Nc3ccnc4ccc(-c5ccc(OCc6ccccc6)c(F)c5)cc34)cc2)CC1` [6-(4-(benzyloxy)-3-fluorophenyl)-N-(4-(4-methylpiperazin-1-yl)phenyl)quinolin-4-amine], the Activity result is recorded as “MAPKAPK2” on MAPKAPK2, “C-TAK1” at C-TAK1, “SRC” on SRC and “SYK” on SYK.

On to `CN1CCN(c2ccc(Nc3ccnc4ccc(-c5cccs5)cc34)cc2)CC1` [N-(4-(4-methylpiperazin-1-yl)phenyl)-6-(thiophen-2-yl)quinolin-4-amine], for which the Activity result is reported as “MAPKAPK2” at MAPKAPK2; “CDK2/cyclin A” on CDK2/cyclin A; “CHEK2” at CHEK2; “GSK3-α” at GSK3-α; “PRAK” on PRAK.

Turning to `CN1CCN(c2ccc(Nc3ccnc4ccc(-c5ccoc5)cc34)cc2)CC1` [6-(furan-3-yl)-N-(4-(4-methylpiperazin-1-yl)phenyl)quinolin-4-amine], the Activity result at MAPKAPK2 is listed as “MAPKAPK2”; at DYRK2, “DYRK2”; on GSK-3-β, “GSK-3-β”; at GSK3-α, “GSK3-α”.

Source of the values: US7452887B2, “Quinoline- and isoquinoline-based compounds exhibiting ATP-utilizing enzyme inhibitory activity, and compositions, and uses thereof” (Amphora Discovery Corporation, priority 2004, dated 2008).
